Test results taken from the NIST ThermoML archive (doi:10.1016/j.jct.2016.10.021).
± gives the expanded uncertainty stated by the source.

Columns and labels:
[1] = wn = mass fraction of the nth substance listed; settings: 303.15 K; for surface tension liquid-gas: Pendant drop shape; for viscosity / mass density: 100 kPa, Liquid; for viscosity: Concentric cylinders viscometry; for mass density: Vibrating tube method
[2] = for surface tension liquid-gas: Pendant drop shape; for viscosity / mass density: 101.33 kPa, Liquid; for viscosity: Concentric cylinders viscometry; for mass density: Vibrating tube method

| SMILES | surface tension liquid-gas ([2]; 293.15 K) [mN/m] | viscosity ([2]; 293.15 K) [mPa·s] | mass density ([2]; 293.15 K) [kg/m3] | surface tension liquid-gas ([2]; 303.15 K) [mN/m] | viscosity ([2]; 303.15 K) [mPa·s] | mass density ([2]; 303.15 K) [kg/m3] | surface tension liquid-gas ([2]; 313.15 K) [mN/m] | viscosity ([2]; 313.15 K) [mPa·s] | mass density ([2]; 313.15 K) [kg/m3] | surface tension liquid-gas ([2]; 323.15 K) [mN/m] | viscosity ([2]; 323.15 K) [mPa·s] | mass density ([2]; 323.15 K) [kg/m3] | surface tension liquid-gas ([2]; 333.15 K) [mN/m] | viscosity ([2]; 333.15 K) [mPa·s] | mass density ([2]; 333.15 K) [kg/m3] | surface tension liquid-gas ([2]; 343.15 K) [mN/m] | viscosity ([2]; 343.15 K) [mPa·s] | mass density ([2]; 343.15 K) [kg/m3] | surface tension liquid-gas ([2]; 353.15 K) [mN/m] | viscosity ([2]; 353.15 K) [mPa·s] | further results |
| --- | --- | --- | --- | --- | --- | --- | --- | --- | --- | --- | --- | --- | --- | --- | --- | --- | --- | --- | --- | --- | --- |
| C1CCC2=NCCC[NH+]2CC1.CS(=O)(=O)[O-] [1,8-diazabicyclo[5.4.0]undec-7-enium methanesulfonate] + O | – | – | – | – | – | – | – | – | – | – | – | – | – | – | – | – | – | – | – | – | surface tension liquid-gas ([1]; w2 = 0.001054): 41.35 ± 0.81 mN/m; surface tension liquid-gas ([1]; w2 = 0.001987): 41.43 ± 0.81 mN/m; surface tension liquid-gas ([1]; w2 = 0.003524): 41.56 ± 0.82 mN/m; surface tension liquid-gas ([1]; w2 = 0.004663): 41.69 ± 0.82 mN/m; surface tension liquid-gas ([1]; w2 = 0.005967): 41.78 ± 0.82 mN/m; viscosity ([1]; w2 = 0.001054): 1177 ± 54 mPa·s; viscosity ([1]; w2 = 0.001987): 1176.8 ± 54 mPa·s; viscosity ([1]; w2 = 0.003524): 1176.5 ± 54 mPa·s; viscosity ([1]; w2 = 0.004663): 1176.3 ± 54 mPa·s; viscosity ([1]; w2 = 0.005967): 1176.1 ± 54 mPa·s; mass density ([1]; w2 = 0.001054): 1219.8 ± 4.2 kg/m3; mass density ([1]; w2 = 0.001987): 1219.37 ± 4.2 kg/m3; mass density ([1]; w2 = 0.003524): 1218.75 ± 4.2 kg/m3; mass density ([1]; w2 = 0.004663): 1218.3 ± 4.2 kg/m3; mass density ([1]; w2 = 0.005967): 1217.81 ± 4.2 kg/m3 |
| C1CCC2=NCCC[NH+]2CC1.O=C([O-])C(F)(F)F [1,8-diazabicyclo[5.4.0]undec-7-enium trifluoroacetate] | 32.47 ± 0.75 | 1193.2 ± 54 | 1264.6 ± 4.2 | 31.98 ± 0.74 | 493.76 ± 18 | 1256.6 ± 4.2 | 31.52 ± 0.74 | 236.97 ± 7 | 1248.9 ± 4.2 | 31.05 ± 0.74 | 127.92 ± 3.2 | 1241.4 ± 4.2 | 30.65 ± 0.73 | 75.72 ± 1.7 | 1234 ± 4.2 | 30.15 ± 0.73 | 48.46 ± 1.1 | 1226.6 ± 4.2 | 29.74 ± 0.73 | 32.94 ± 0.74 | mass density ([2]; 353.15 K): 1219.2 ± 4.2 kg/m3; viscosity ([2]; 363.15 K): 23.43 ± 0.53 mPa·s; mass density ([2]; 363.15 K): 1211.9 ± 4.2 kg/m3 |
| C1CCC2=NCCC[NH+]2CC1.O=C([O-])C(F)(F)F [1,8-diazabicyclo[5.4.0]undec-7-enium trifluoroacetate] + O | – | – | – | – | – | – | – | – | – | – | – | – | – | – | – | – | – | – | – | – | surface tension liquid-gas ([1]; w2 = 0.001118): 31.98 ± 0.74 mN/m; surface tension liquid-gas ([1]; w2 = 0.002196): 32.01 ± 0.74 mN/m; surface tension liquid-gas ([1]; w2 = 0.003948): 32.06 ± 0.74 mN/m; surface tension liquid-gas ([1]; w2 = 0.005067): 32.09 ± 0.74 mN/m; surface tension liquid-gas ([1]; w2 = 0.006935): 32.14 ± 0.74 mN/m; viscosity ([1]; w2 = 0.001118): 493.76 ± 18 mPa·s; viscosity ([1]; w2 = 0.002196): 493.59 ± 18 mPa·s; viscosity ([1]; w2 = 0.003948): 493.33 ± 18 mPa·s; viscosity ([1]; w2 = 0.005067): 493.17 ± 18 mPa·s; viscosity ([1]; w2 = 0.006935): 492.85 ± 18 mPa·s; mass density ([1]; w2 = 0.001118): 1256.6 ± 4.2 kg/m3; mass density ([1]; w2 = 0.002196): 1256.2 ± 4.2 kg/m3; mass density ([1]; w2 = 0.003948): 1255.7 ± 4.2 kg/m3; mass density ([1]; w2 = 0.005067): 1255.2 ± 4.2 kg/m3; mass density ([1]; w2 = 0.006935): 1254.6 ± 4.2 kg/m3 |
| C1CCC2=[NH+]CCCN2CC1.O=S(=O)([O-])C(F)(F)F + O | – | – | – | – | – | – | – | – | – | – | – | – | – | – | – | – | – | – | – | – | surface tension liquid-gas ([1]; w2 = 0.001106): 29.8 ± 0.7 mN/m; surface tension liquid-gas ([1]; w2 = 0.002067): 29.74 ± 0.73 mN/m; surface tension liquid-gas ([1]; w2 = 0.003286): 29.66 ± 0.73 mN/m; surface tension liquid-gas ([1]; w2 = 0.004194): 29.6 ± 0.7 mN/m; surface tension liquid-gas ([1]; w2 = 0.005671): 29.51 ± 0.72 mN/m; viscosity ([1]; w2 = 0.001106): 524.23 ± 19 mPa·s; viscosity ([1]; w2 = 0.002067): 524.18 ± 19 mPa·s; viscosity ([1]; w2 = 0.003286): 524.11 ± 19 mPa·s; viscosity ([1]; w2 = 0.004194): 524.06 ± 19 mPa·s; viscosity ([1]; w2 = 0.005671): 523.99 ± 19 mPa·s; mass density ([1]; w2 = 0.001106): 1352.7 ± 4.3 kg/m3; mass density ([1]; w2 = 0.002067): 1352.2 ± 4.3 kg/m3; mass density ([1]; w2 = 0.003286): 1351.6 ± 4.3 kg/m3; mass density ([1]; w2 = 0.004194): 1351.1 ± 4.3 kg/m3; mass density ([1]; w2 = 0.005671): 1350.5 ± 4.3 kg/m3 |
| C1CCC2=NCCC[NH+]2CC1.CS(=O)(=O)[O-] [1,8-diazabicyclo[5.4.0]undec-7-enium methanesulfonate] | 41.84 ± 0.82 | 3310.1 ± 190 | 1226.6 ± 4.2 | 41.35 ± 0.81 | 1177 ± 53 | 1219.8 ± 4.2 | 40.49 ± 0.81 | 497.53 ± 18 | 1212.9 ± 4.2 | 39.58 ± 0.8 | 241.49 ± 7.2 | 1206.1 ± 4.2 | 38.79 ± 0.79 | 131.6 ± 3.3 | 1199.5 ± 4.2 | 38.23 ± 0.79 | 78.46 ± 1.8 | 1193 ± 4 | 37.54 ± 0.78 | 50.26 ± 1.1 | mass density ([2]; 353.15 K): 1186.5 ± 4.2 kg/m3; viscosity ([2]; 363.15 K): 34.12 ± 0.77 mPa·s; mass density ([2]; 363.15 K): 1180.2 ± 4.2 kg/m3 |
| C1CCC2=[NH+]CCCN2CC1.O=S(=O)([O-])C(F)(F)F | 30.39 ± 0.73 | 1113.1 ± 49 | 1361 ± 4.3 | 29.8 ± 0.73 | 524.23 ± 19 | 1352.7 ± 4.3 | 29.27 ± 0.72 | 276 ± 8.5 | 1344.5 ± 4.3 | 28.83 ± 0.72 | 158.89 ± 4.2 | 1336.7 ± 4.3 | 28.31 ± 0.72 | 98.25 ± 2.4 | 1329 ± 4.3 | 27.71 ± 0.71 | 64.4 ± 1.5 | 1321.2 ± 4.2 | 27.15 ± 0.71 | 44.29 ± 1 | mass density ([2]; 353.15 K): 1313.5 ± 4.2 kg/m3; viscosity ([2]; 363.15 K): 31.75 ± 0.72 mPa·s; mass density ([2]; 363.15 K): 1305.9 ± 4.2 kg/m3 |
| C1CCC2=[NH+]CCCN2CC1.CC(=O)[O-] [2,3,4,6,7,8,9,10-octahydropyrimido[1,2-a]azepinium acetate] + O | – | – | – | – | – | – | – | – | – | – | – | – | – | – | – | – | – | – | – | – | surface tension liquid-gas ([1]; w2 = 0.001127): 35.94 ± 0.87 mN/m; surface tension liquid-gas ([1]; w2 = 0.002156): 35.99 ± 0.87 mN/m; surface tension liquid-gas ([1]; w2 = 0.003932): 36.09 ± 0.87 mN/m; surface tension liquid-gas ([1]; w2 = 0.005106): 36.15 ± 0.87 mN/m; surface tension liquid-gas ([1]; w2 = 0.006373): 36.23 ± 0.87 mN/m; viscosity ([1]; w2 = 0.001127): 84.73 ± 2.2 mPa·s; viscosity ([1]; w2 = 0.002156): 84.7 ± 2.2 mPa·s; viscosity ([1]; w2 = 0.003932): 84.66 ± 2.2 mPa·s; viscosity ([1]; w2 = 0.005106): 84.62 ± 2.2 mPa·s; viscosity ([1]; w2 = 0.006373): 84.59 ± 2.2 mPa·s; mass density ([1]; w2 = 0.001127): 1069.1 ± 4.5 kg/m3; mass density ([1]; w2 = 0.002156): 1068.4 ± 4.5 kg/m3; mass density ([1]; w2 = 0.003932): 1066.9 ± 4.5 kg/m3; mass density ([1]; w2 = 0.005106): 1065.9 ± 4.5 kg/m3; mass density ([1]; w2 = 0.006373): 1065 ± 4 kg/m3 |
| C1CCC2=[NH+]CCCN2CC1.CC(=O)[O-] [2,3,4,6,7,8,9,10-octahydropyrimido[1,2-a]azepinium acetate] | 36.88 ± 0.78 | 164.74 ± 4.4 | 1076 ± 4.1 | 35.94 ± 0.77 | 84.73 ± 2 | 1069.1 ± 4.1 | 34.6 ± 0.76 | 48.34 ± 1.1 | 1062.3 ± 4.1 | 33.47 ± 0.75 | 30.38 ± 0.69 | 1055.6 ± 4.1 | 32.38 ± 0.75 | 20.36 ± 0.46 | 1048.7 ± 4.1 | 31.46 ± 0.74 | 14.39 ± 0.33 | 1041.8 ± 4.1 | 30.63 ± 0.73 | 10.59 ± 0.24 | mass density ([2]; 353.15 K): 1034.9 ± 4.1 kg/m3; viscosity ([2]; 363.15 K): 8.052 ± 0.18 mPa·s; mass density ([2]; 363.15 K): 1028 ± 4 kg/m3 |
